In patent US7528138B2, “Pyrazolo[1,5-a]pyrimidines useful as inhibitors of protein kinases” (Vertex Pharmaceuticals Incorporated, priority 2004, dated 2009):

What was measured:
[1] = target: T1, Itk (Homo sapiens, UniProt Q08881); assay: ITK Inhibition Assay (Radiometric), radioactive-phosphate incorporation; format: biochemical; details: enzyme inhibition data (Ki), Table 11; radiometric or UV assay not stated
T1 sequence (Q08881 1-620): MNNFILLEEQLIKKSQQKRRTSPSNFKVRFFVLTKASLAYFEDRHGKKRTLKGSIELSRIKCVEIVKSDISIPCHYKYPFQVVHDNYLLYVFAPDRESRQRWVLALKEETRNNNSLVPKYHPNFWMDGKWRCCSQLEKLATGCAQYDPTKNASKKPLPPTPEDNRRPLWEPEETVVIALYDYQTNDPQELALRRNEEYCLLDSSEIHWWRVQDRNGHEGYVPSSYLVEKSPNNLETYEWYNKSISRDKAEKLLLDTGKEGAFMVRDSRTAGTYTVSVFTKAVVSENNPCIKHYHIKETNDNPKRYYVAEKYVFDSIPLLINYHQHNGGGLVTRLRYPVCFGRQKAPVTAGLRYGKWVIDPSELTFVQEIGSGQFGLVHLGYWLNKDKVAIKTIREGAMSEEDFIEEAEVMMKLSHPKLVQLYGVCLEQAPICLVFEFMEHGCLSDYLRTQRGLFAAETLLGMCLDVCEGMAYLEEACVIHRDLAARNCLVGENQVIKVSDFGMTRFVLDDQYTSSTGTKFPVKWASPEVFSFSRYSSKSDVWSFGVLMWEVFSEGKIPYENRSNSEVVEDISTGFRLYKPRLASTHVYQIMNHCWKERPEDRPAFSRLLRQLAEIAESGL
Summary of the method: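 Radiometric 33P incorporation into SAM68 peptide (D332-443) with filter capture and scintillation counting; 10 min pre-incubation then 10 min reaction at 25° C. IC50 format: 30 nM Itk, 15 μM ATP, 2 μM peptide, HEPES pH 7.5. Ki(app) format: 50 nM Itk, 7.5 μM ATP, 3 μM peptide, MOPS pH 7.0.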

[2] = target: T2, JAK3 (Homo sapiens, UniProt P52333); assay: JAK3 Inhibition Assay, 33P incorporation; format: biochemical; details: enzyme inhibition data (Ki), Table 11
T2 sequence (P52333 1-1124): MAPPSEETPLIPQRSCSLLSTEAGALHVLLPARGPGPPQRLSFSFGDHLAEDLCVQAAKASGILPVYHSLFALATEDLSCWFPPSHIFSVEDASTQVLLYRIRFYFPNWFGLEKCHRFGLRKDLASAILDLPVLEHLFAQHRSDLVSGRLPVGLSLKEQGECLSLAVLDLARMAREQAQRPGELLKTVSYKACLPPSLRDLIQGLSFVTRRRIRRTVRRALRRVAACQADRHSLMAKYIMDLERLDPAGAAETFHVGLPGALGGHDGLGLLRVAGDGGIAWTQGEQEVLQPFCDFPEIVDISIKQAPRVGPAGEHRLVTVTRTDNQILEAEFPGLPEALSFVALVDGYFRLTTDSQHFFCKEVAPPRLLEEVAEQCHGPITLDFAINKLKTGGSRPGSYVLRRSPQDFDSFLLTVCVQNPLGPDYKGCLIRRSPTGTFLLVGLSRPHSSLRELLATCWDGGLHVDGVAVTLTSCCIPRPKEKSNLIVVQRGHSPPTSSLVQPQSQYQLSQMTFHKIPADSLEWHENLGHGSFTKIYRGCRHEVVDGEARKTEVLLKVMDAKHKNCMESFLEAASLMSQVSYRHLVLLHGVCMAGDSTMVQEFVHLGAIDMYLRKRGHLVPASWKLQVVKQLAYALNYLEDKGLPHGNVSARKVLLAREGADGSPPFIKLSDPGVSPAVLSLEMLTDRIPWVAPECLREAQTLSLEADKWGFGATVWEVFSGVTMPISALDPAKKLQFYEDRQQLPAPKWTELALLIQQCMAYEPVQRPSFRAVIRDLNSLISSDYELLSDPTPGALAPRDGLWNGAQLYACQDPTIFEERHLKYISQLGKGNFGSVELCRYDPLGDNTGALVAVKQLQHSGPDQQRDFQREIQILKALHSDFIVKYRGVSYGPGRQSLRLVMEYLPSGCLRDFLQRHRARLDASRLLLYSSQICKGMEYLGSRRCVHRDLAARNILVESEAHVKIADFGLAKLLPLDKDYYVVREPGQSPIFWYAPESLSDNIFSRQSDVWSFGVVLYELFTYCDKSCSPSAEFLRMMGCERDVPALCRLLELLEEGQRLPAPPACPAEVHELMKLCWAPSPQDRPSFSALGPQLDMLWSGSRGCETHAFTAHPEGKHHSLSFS
Summary of the method: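 33P incorporation into 1 μM poly(Glu)4Tyr was counted after TCA stop and glass fiber filtration. The 20 min reaction ran at 25 °C with 1 nM JAK3 and 5 μM ATP (200 uCi/μmole). Buffer was 100 mM HEPES pH 7.4, 10 mM MgCl2, 25 mM NaCl, 1 mM DTT, 0.01% BSA.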

Row | SMILES | Ki [1] [nM] | Ki [2] [nM]
1 | Cc1cnc2c(-c3cc(NC(C)C)ncn3)c(N)nn2c1 [Compound V-273] | 500 to 5000 | 500 to 5000
2 | Nc1nn2cc(-c3ccc(C(=O)N4CCC(N)C4)cn3)cnc2c1-c1ccccn1 (centres unmarked) [Compound V-81] | < 500 | 500 to 5000
3 | Nc1nn2cc(-c3ccc(C(=O)NCCF)cn3)cnc2c1-c1ccccn1 [Compound V-73] | 500 to 5000 | > 5000
4 | COCCN1CCN(C(=O)c2ccc(-c3cnc4c(-c5ccccn5)c(N)nn4c3)nc2)CC1 [Compound V-68] | < 500 | 500 to 5000
5 | Cc1cnc2c(-c3cc(NC4CC4)ncn3)c(N)nn2c1 [Compound V-289] | 500 to 5000 | 500 to 5000
6 | Nc1nn2cc(Cl)cnc2c1-c1ccccn1 [Compound V-280] | 500 to 5000 | > 5000
7 | CCN1CCN(C(=O)c2ccc(-c3cnc4c(-c5ccccn5)c(N)nn4c3)nc2)CC1 [Compound V-63] | < 500 | 500 to 5000
8 | CC(C)N(C)C(=O)c1ccc(-c2cnc3c(-c4ccccn4)c(N)nn3c2)nc1 [Compound V-67] | 500 to 5000 | 500 to 5000
9 | CC[C@H](C)Nc1cc(-c2c(N)nn3cc(C)cnc23)ncn1 [Compound V-294] | 500 to 5000 | 500 to 5000
10 | Cc1cnc2c(-c3cc(NC4CCN(Cc5ccccc5)CC4)ncn3)c(N)nn2c1 [Compound V-285] | 500 to 5000 | 500 to 5000
11 | COC(=O)N1CCN(C(=O)c2ccc(-c3cnc4c(-c5ccccn5)c(N)nn4c3)nc2)CC1 [Compound V-64] | < 500 | 500 to 5000
12 | CCN(C)C(=O)c1ccc(-c2cnc3c(-c4ccccn4)c(N)nn3c2)nc1 [Compound V-89] | < 500 | 500 to 5000
13 | COc1ccccc1Nc1cc(-c2c(N)nn3cc(C)cnc23)ncn1 [Compound V-274] | < 500 | 500 to 5000
14 | CCCN(CCCN)C(=O)c1ccc(-c2cnc3c(-c4ccccn4)c(N)nn3c2)nc1 [Compound V-85] | < 500 | 500 to 5000
15 | COc1ccncc1-c1cnc2c(-c3ccccn3)c(N)nn2c1 [Compound V-22] | 500 to 5000 | > 5000
16 | Nc1nn2cc(-c3ccc(C(=O)N4CCC(CCO)CC4)cn3)cnc2c1-c1ccccn1 [Compound V-83] | < 500 | 500 to 5000
17 | Nc1nn2cc(-c3ccc(C(=O)N4CCC[C@@H](O)C4)cn3)cnc2c1-c1ccccn1 [Compound V-79] | < 500 | 500 to 5000
18 | Cc1cnc2c(-c3cc(NC4CCN(Cc5ccccc5)C4)ncn3)c(N)nn2c1 (centres unmarked) [Compound V-286] | 500 to 5000 | 500 to 5000
19 | Cc1cnc2c(-c3cc(NCC4CC4)ncn3)c(N)nn2c1 [Compound V-277] | 500 to 5000 | 500 to 5000
20 | CCN(C(=O)c1c(N)nn2cc(-c3ccncn3)cnc12)C(C)C [Compound V-33] | 500 to 5000 | > 5000
21 | Cc1cnc2c(-c3cc(N[C@@H](C)CO)ncn3)c(N)nn2c1 [Compound V-295] | 500 to 5000 | 500 to 5000
22 | Cc1cnc2c(-c3cc(N[C@H](C)CO)ncn3)c(N)nn2c1 [Compound V-293] | 500 to 5000 | 500 to 5000
23 | Cc1cnc2c(-c3cc(Nc4ccccc4)ncn3)c(N)nn2c1 [Compound V-279] | < 500 | < 500
24 | Cc1cnc2c(-c3cc(N4CCCCC4)ncn3)c(N)nn2c1 [Compound V-276] | < 500 | 500 to 5000
25 | CCCN(CCO)C(=O)c1ccc(-c2cnc3c(-c4ccccn4)c(N)nn3c2)nc1 [Compound V-92] | < 500 | 500 to 5000

Row | SMILES | Ki [1] [nM] | Ki [2] [nM]
26 | COCCN(C)C(=O)c1ccc(-c2cnc3c(-c4ccccn4)c(N)nn3c2)nc1 [Compound V-75] | 500 to 5000 | > 5000
27 | CCN(CCC#N)C(=O)c1ccc(-c2cnc3c(-c4ccccn4)c(N)nn3c2)nc1 [Compound V-90] | < 500 | 500 to 5000
28 | Cc1cnc2c(-c3cc(NC4CCC4)ncn3)c(N)nn2c1 [Compound V-290] | 500 to 5000 | 500 to 5000
29 | Cc1cnc2c(-c3cc(NCC4CCCO4)ncn3)c(N)nn2c1 (centres unmarked) [Compound V-278] | 500 to 5000 | 500 to 5000
30 | CN(CCN)C(=O)c1ccc(-c2cnc3c(-c4ccccn4)c(N)nn3c2)nc1 [Compound V-94] | < 500 | > 5000
31 | Nc1nn2cc(N3CCOCC3)cnc2c1-c1ccccn1 [Compound V-57] | 500 to 5000 | > 5000
32 | Cc1cnc2c(-c3cc(NC4CCCCC4)ncn3)c(N)nn2c1 [Compound V-291] | 500 to 5000 | 500 to 5000
33 | Nc1nn2cc(-c3ccc(C(=O)N4CCC4)cn3)cnc2c1-c1ccccn1 [Compound V-86] | 500 to 5000 | > 5000
34 | CCOC(=O)c1c(N)nn2cc(-c3ccc(Cl)cc3)cnc12 [Compound V-24] | 500 to 5000 | > 5000
35 | CN(C)CCNC(=O)c1cccc(-c2cnc3c(-c4ccccn4)c(N)nn3c2)c1 [Compound V-54] | 500 to 5000 | > 5000
36 | CN(C)CCNC(=O)c1ccc(-c2cnc3c(-c4ccccn4)c(N)nn3c2)nc1 [Compound V-65] | < 500 | 500 to 5000
37 | Nc1nn2cc(-c3ccc(C(=O)N4CCCCC4CCO)cn3)cnc2c1-c1ccccn1 (centres unmarked) [Compound V-82] | < 500 | > 5000
38 | Nc1nn2cc(-c3ccc(C(=O)N4CCSCC4)cn3)cnc2c1-c1ccccn1 [Compound V-87] | < 500 | 500 to 5000
39 | C#CCN(C)C(=O)c1ccc(-c2cnc3c(-c4ccccn4)c(N)nn3c2)nc1 [Compound V-72] | < 500 | 500 to 5000
40 | CCN(CCCCN)C(=O)c1ccc(-c2cnc3c(-c4ccccn4)c(N)nn3c2)nc1 [Compound V-74] | < 500 | 500 to 5000
41 | CCOC(=O)N1CCN(C(=O)c2ccc(-c3cnc4c(-c5ccccn5)c(N)nn4c3)nc2)CC1 [Compound V-76] | < 500 | 500 to 5000
42 | Nc1nn2cc(-c3ccc(C(=O)N4CCC[C@@H]4CO)cn3)cnc2c1-c1ccccn1 [Compound V-93] | < 500 | 500 to 5000
43 | CC(C)N1CCN(c2ccc(-c3cnc4c(-c5ccccn5)c(N)nn4c3)cc2)CC1 [Compound V-51] | < 500 | 500 to 5000
44 | CCN1CCN(C(=O)c2ccc(-c3cnc4c(-c5ccccn5)c(N)nn4c3)nc2)C(O)C1 (centres unmarked) [Compound V-78] | < 500 | 500 to 5000
45 | CN1CCCN(C(=O)c2ccc(-c3cnc4c(-c5ccccn5)c(N)nn4c3)nc2)CC1 [Compound V-70] | < 500 | 500 to 5000
46 | CSc1cc(-c2c(N)nn3cc(C)cnc23)ncn1 [Compound V-281] | 500 to 5000 | 500 to 5000
47 | Nc1nn2cc(-c3ccc(C(=O)N4CCCC(CO)C4)cn3)cnc2c1-c1ccccn1 (centres unmarked) [Compound V-71] | < 500 | 500 to 5000
48 | CCN(CCN)C(=O)c1ccc(-c2cnc3c(-c4ccccn4)c(N)nn3c2)nc1 [Compound V-62] | < 500 | 500 to 5000
49 | COc1ccc(-c2cnc3c(C#N)c(N)nn3c2)cc1 [Compound V-2] | 500 to 5000 | > 5000
